Results taken from US20250288634A1, “Fenugreek Formulation for Lowering Blood Glucose and Weight Loss” (priority 2024, published 2025).
Like-named read-outs stand apart in the source and are kept apart here.

Tests used:
[1] = Clinical Case Example #2: regulating blood glucose levels, body weight, tolerability; format: in vivo, human; settings: within just a few days of using, person with type-2 diabetes on metformin
Description: Clinical Case Example #2: The therapeutic composition (i.e. fenugreek formulation) used in Clinical Case Example #1 above was also tested for efficacy on regulating blood glucose levels. The subject was a person, height of 5 feet 6 inches and with baseline a body weight of about 175 lbs. Despite long-term management of their type-2 diabetes with metformin, they still had blood glucose readings almost continuously in the low to high 200s mg/dL (e.g. 204, 228, 277) with hemoglobin A1C of 7.2%. A typical fasting blood sugar for them was 189.
Due to consistently high blood glucose levels, their endocrinologist prescribed Januvia (sitagliptin, a dipeptidyl peptidase-4 (DPP-4) inhibitor). […]
When sufficiently recovered from the pancreatitis, they started using the fenugreek formulation of this invention (combination of fenugreek, curcumin, and chromium picolinate) while they continued taking metformin. Within a few days of starting the fenugreek formulation, their blood glucose readings declined from well over 200 for most of the day, to around 180, with excursions into the mid-200s only after high-sugar meals (whereas prior to this regimen, their blood glucose was in the 200s at a steady state). Occasionally, while on the fenugreek formulation regimen, they had blood glucose readings down to 110. This was the first time in half a decade that the subject had readings as low as 110. […]

[2] = cited from earlier work
[3] = molecular target: dipeptidyl-peptidase 4 (DPP4) (Homo sapiens, UniProt P27487); settings: cited from earlier work
Sequence of dipeptidyl-peptidase 4 (DPP4) (P27487 whole entry, species assumed): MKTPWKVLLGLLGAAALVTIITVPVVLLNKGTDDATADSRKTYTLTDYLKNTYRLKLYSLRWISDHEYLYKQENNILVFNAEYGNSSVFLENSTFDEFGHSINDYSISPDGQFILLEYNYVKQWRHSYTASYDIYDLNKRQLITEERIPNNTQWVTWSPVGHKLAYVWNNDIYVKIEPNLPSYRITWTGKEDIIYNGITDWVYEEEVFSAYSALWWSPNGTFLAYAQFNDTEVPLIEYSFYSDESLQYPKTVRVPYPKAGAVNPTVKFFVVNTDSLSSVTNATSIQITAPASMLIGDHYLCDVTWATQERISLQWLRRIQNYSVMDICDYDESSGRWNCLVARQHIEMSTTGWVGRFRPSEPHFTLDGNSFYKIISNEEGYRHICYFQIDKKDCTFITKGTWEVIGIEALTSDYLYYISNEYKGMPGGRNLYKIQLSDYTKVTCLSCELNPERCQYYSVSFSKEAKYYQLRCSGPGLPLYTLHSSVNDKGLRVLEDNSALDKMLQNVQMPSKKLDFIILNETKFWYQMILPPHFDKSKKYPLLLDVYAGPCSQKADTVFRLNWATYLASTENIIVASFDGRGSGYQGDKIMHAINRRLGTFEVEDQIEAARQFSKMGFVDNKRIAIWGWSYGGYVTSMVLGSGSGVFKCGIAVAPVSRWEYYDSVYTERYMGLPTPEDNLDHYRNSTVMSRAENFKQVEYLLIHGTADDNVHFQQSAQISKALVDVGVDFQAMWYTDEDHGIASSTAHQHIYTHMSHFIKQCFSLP

N[C@@H](CC(=O)N1CCn2c(nnc2C(F)(F)F)C1)Cc1cc(F)c(F)cc1F [Januvia, sitagliptin]
adverse events [1]: diarrhea and signs of acute pancreatitis

[Cr] [chromium]
safety ([2]; 200-1,000 μg daily for up to two years): used safely | safety ([2]; up to 1,000 μg daily for up to six months): used safely

COc1cc(/C=C/C(=O)CC(=O)/C=C/c2ccc(O)c(OC)c2)ccc1O [curcumin]
action on DPP4 [3]: inhibits
